Laboratory results: patent US10780174B2, “Lipid-linked prodrugs” (The University of British Columbia, priority 2015, dated 2020)
pIC50: −log10 of the molar value.

Experiments:
[1] = Particle size and polydispersity of LNP containing prodrug (dynamic light scattering); assay type: physicochemical; conditions: PDI in brackets; for Particle size (PDI) PC-Chol LNP: LD-DEX prodrug in PC-Chol LNP; for Particle size (PDI) [ionizable LNP]: LD-DEX prodrug in ionizable LNP
Description: (§1) Preparation of LNP Systems: PC-Chol LNP systems were prepared by rapidly mixing POPC, cholesterol, lipid-linked prodrug and PEG-DMPE (in molar ratio of 49/39/10/2) dissolved in ethanol with phosphate-buffered saline using a T-junction mixer. Formulations were dialyzed against phosphate-buffered saline to remove residual ethanol and to raise the pH to 7.4. PC-TO and ionizable LNP systems were prepared in the same way except that the lipid compositions for these systems are: POPC, triolein, lipid-linked prodrug and PEG-DSPE (in molar ration of 19/70/10/1), and ionizable lipid, DSPC, cholesterol, lipid-linked prodrug and PEG-DMPE (in molar ration of 40/10/38.5/10/1.5), respectively.
Characterization of LNP: Particle size was determined by dynamic light scattering using a Malvern Zetasizer Nano ZS™ (Malvern, UK) following buffer exchange into phosphate-buffered saline. Number-weighted size and distribution data was used. Lipid concentrations were determined by measuring total cholesterol using the Cholesterol E enzymatic assay kit from Wako Chemicals USA™ (Richmond, Va.). The morphology of LNP formulations containing LD-DEX was analyzed by cryogenic-transmission electron microscopy (cryoTEM) as described previously [Leung et al. (2012)].

[2] = Prodrug incorporation (entrapment) in lipid nanoparticles, UHPLC; assay type: physicochemical; conditions: for % Entrapment PC-Chol LNP: LD-DEX prodrug in PC-Chol LNP; for % Entrapment [ionizable LNP]: LD-DEX prodrug in ionizable LNP
Description: as §1
(§2) Quantitation of prodrugs by HPLC: LD-DEX/DTX were quantified by ultra high-pressure liquid chromatography (UHPLC) using a Waters Acquity™ UPLC system equipped with a photodiode array detector (PDA) and evaporative light scattering (ELS) detector; Empower™ data acquisition software version 3.0 was used (Waters™, USA). Separations were performed using a Waters Acquity™ BEH C18 column (1.7 μm, 2.1×100 mm) at a flow rate of 0.5 ml/min, with mobile phases A and B consisting of methanol/10 mM ammonium bicarbonate (80/20% v/v) and methanol/acetonitrile (80/20% v/v), respectively. The mobile phases were delivered at a programmed linear gradient (45%-80% B in 1 min then to 99% B at 2 min) at a column temperature of 55° C. The analyte was measured by PDA (at a wavelength of 239 nm) and ELS detector against calibration standard curves. For the analysis of LD-DEX/DTX breakdown to active compound, linear gradients of 20/80% to 100/0% (acetonitrile/water, v/v) over 7 min were used.

[3] = In vitro degradation of lipid-linked prodrugs in LNP, mouse plasma; assay type: in vitro ADME; conditions: for prodrug cleavage/degradation after 1 h in plasma / release of active drug (UPLC chromatogram) in mouse plasma: LNP; for prodrug cleavage/degradation after 1 h in plasma: 37° C., mouse plasma; for release of active drug (UPLC chromatogram) in mouse plasma: 24 h incubation
Description: as §2
To determine the biodegradability of the dexamethasone or docetaxel prodrugs (LD-DEX/DTX), 1 mg/mL LNP was incubated in mouse plasma (Cedarlane™, Burlington, Ontario) or PBS supplemented with 10 U of purified esterase (Sigma-Aldrich™, St. […] Post incubation, four volumes of chloroform/methanol (2:1) was added and the mixture was vortex mixed. Samples were centrifuged at 13,000 g for 5 minutes and the upper phase was discarded. The remaining organic phase was dried down under vacuum and the resulting lipid extract was dissolved in methanol/acetonitrile (1:1). Quantity of parent LD-DEX/DTX compound was determined by ultra high pressure liquid chromatography on a Waters Acquity™ H-Class UPLC System™ equipped with a BEH C18 column and a photodiode array detector.

[4] = In vitro dissociation of lipid-linked prodrugs from LNP in human plasma; assay type: in vitro ADME; conditions: human plasma over 24 h, 37° C., PC-Chol LNP or ionizable LNP
Description: LNP were incubated for 0, 3, 5 and 24 h at 37° C. in 400 μL of sterile human plasma (Cedarlane™, Burlington, Ontario) at a final lipid concentration of 1.2 mM. At the various time-points, samples were loaded onto a 1.5×27 cm Sepharose CL-4B column (Sigma-Aldrich™, St. Louis, Mo.). 30×2 mL fractions were collected. Three volumes of methanol/acetonitrile (1:1) were added to each fraction and analyzed by UHPLC to determine the residual LD-DEX/DTX as described above.

[5] = test system: immunostimulatory effects of LNP-CpG (plasma cytokines); test: In vivo immune suppression by LD-DEX prodrugs, LNP-CpG model; parameters: species or system C57Bl/6 mice; conditions: mice, i.v., 10 mg/kg of CpG, 2 h post injection
Description: 6-8 Weeks old female C57Bl/6 mice (Charles River Laboratories™, Wilmington, Mass.) were injected intravenously with lipid nanoparticles containing CpG DNA oligonucleotides (10 mg/kg), mRNA (3 mg/kg) or plasmid DNA (pDNA) (1 mg/kg). Animals were euthanized 2 hours post-injection and blood was collected via intracardiac or saphenous sampling. Plasma was separated from whole blood by centrifugation and analyzed for proinflammatory cytokines using the Mesoscale Proinflammatory Multiplex™ kit (Rockville, Md.) according to manufacturer's instruction. All procedures were approved by the Animal Care Committee at the University of British Columbia and were performed in accordance with guidelines established by the Canadian Council on Animal Care.

[6] = test system: purified porcine esterase; test: In vitro degradation of lipid-linked prodrugs in LNP, purified esterase in PBS; conditions: for release of active drug (UPLC chromatogram) in purified esterase: LNP, 24 h incubation
[7] = test system: IL1β expression in RAW 264.7 mouse macrophage cells; test: In vitro immune suppression, LPS-treated RAW 264.7 cells, IL1β qRT-PCR; assay type: cell-based; conditions: 2 ng/mL LPS, 4 h
Description: RAW 264.7 mouse macrophage cells were seeded at 250,000 cells per mL on 12-well plates and incubated at 37° C. overnight. Lipopolysaccharide (LPS) was dissolved in phosphate buffered saline at a concentration of 2 μg/ml. Cells were treated with lipid nanoparticles containing LD-DEX prodrugs and 2 ng/ml of LPS for 4 hours. This LPS concentration was chosen due to its ability to increase IL1β expression approximately 1000 times as compared to untreated cells. At the end of the incubation period, culture medium was aspirated and cellular RNA was extracted using the Purelink RNA™ extraction kit according to manufacturer's protocol (Life Technologies™, Burlington, ON). The concentration of extracted RNA was determined using a Nanodrop Lite™ (Thermo Fisher™). 1 μg of RNA was converted to cDNA using the High Capacity cDNA Reverse Transcription kit (Life Technologies™, Burlington, ON). In order to validate the sample preparation, a no template control and a negative reverse transcriptase control were included. The cDNA was then quantified using comparative real-time qPCR where the Ct (threshold cycle) values are converted to relative quantity using the 2-ΔΔCT method. The primer-probe sets were designed to bind to cDNA of Interleukin-1β(IL1β). Hypoxanthine-guanine phosphoribosyltransferase (HPRT) was chosen as the endogenous normalizer gene, which is known to maintain consistent levels with varying treatments.

[8] = test system: OVCAR3 cells; test: In vitro growth inhibition by LD-DTX prodrugs, cell viability assay; assay type: cell-based; conditions: Homo sapiens, OVCAR-3, 48 h, Ovcar3 cells
Description: OVCAR3 cells were obtained from ATCC (Manassas, Va.). Cells were seeded at 12,000 cells per well on 96-well plates and treated with free docetaxel, prodrugs, lipid nanoparticle formulations with or without prodrugs at 0 to 15 μM of docetaxel for 48 h. Cell viability was determined by a colorimetric assay, based on the tetrazolium salt MIT (3-(4,5-dimethylthiazol-2-yl)-2,5-diphenyltetrazolium bromide), as described previously [Mossman 1983].

SMILES	Particle size (PDI) PC-Chol LNP [1]	Particle size (PDI) [ionizable LNP] [1]	% Entrapment PC-Chol LNP [2] [%]	% Entrapment [ionizable LNP] [2]	prodrug degradation over 24 h in mouse plasma ([3]; LNP, 0, 2, 4 and 24 h)	prodrug cleavage/degradation after 1 h in plasma [3]	release of active drug (UPLC chromatogram) in mouse plasma [3]	prodrug dissociation rate from LNP [4]	prodrug dissociation rate from LNP ([4]; listed as LD02)	plasma TNFα and KC/GRO levels versus control LNP-CpG [5]	prodrug degradation over 24 h in purified esterase ([6]; LNP, 0, 2, 4 and 24 h)	release of active drug (UPLC chromatogram) in purified esterase [6]	plasma cytokine (TNFα, IL-6 and IL-10) levels versus control LNP-CpG [5]	IL1β expression versus control LNP without prodrug [7]	prodrug dissociation rate from LNP ([4]; listed as LD18)	pIC50 ([8]; Free drugs)	pIC50 ([8]; PC-Chol LNP)	pIC50 ([8]; PC-TO LNP)	pIC50 ([8]; ionizable LNP)
CCCCC/C=C\C/C=C\CCCCCCCC(=O)OC[C@H](COC(=O)CCC(=O)OCC(=O)[C@@]1(O)[C@H](C)C[C@H]2[C@@H]3CCC4=CC(=O)C=C[C@]4(C)[C@@]3(F)[C@@H](O)C[C@@]21C)OC(=O)CCCCCCC/C=C\C/C=C\CCCCC [LD02-DEX, 2,3-dilinoleoyloxypropyl (2-((8S,9R,10S,11S,13S,14S,16R,17R)-9-fluoro-11,17-dihydroxy-10,13,16-trimethyl-3-oxo-6,7,8,9,10,11,12,13,14,15,16,17-dodecahydro-3H-cyclopenta[a]phenanthren-17-yl)-2-oxoethyl) succinate]	53 (0.05) nm	[49 (0.05)] nm	100	[99] %	progressively degraded	virtually no degradation	a peak corresponding to active dexamethasone (DEX) appeared	dissociated from lipid nanoparticles at a slower rate than LD03-DEX	dissociates from LNP at a slower rate than that of LD03	marked reduction in cytokine levels	progressively degraded	a peak corresponding to active dexamethasone (DEX) appeared	–	–	–	–	–	–	–
CCCCCCCCCCCCCCCCOC(=O)CCC(=O)OCC(=O)[C@@]1(O)[C@H](C)C[C@H]2[C@@H]3CCC4=CC(=O)C=C[C@]4(C)[C@@]3(F)[C@@H](O)C[C@@]21C [LD14-DEX, palmityl 2-((8S,9R,10S,11S,13S,14S,16R,17R)-9-fluoro-11,17-dihydroxy-10,13,16-trimethyl-3-oxo-6,7,8,9,10,11,12,13,14,15,16,17-dodecahydro-3H-cyclopenta[a]phenanthren-17-yl)-2-oxoethyl succinate]	67 (0.05) nm	[47 (0.06)] nm	100	[95] %	–	partially degraded	–	–	–	–	–	–	able to suppress plasma cytokine	able to reduce IL1β expression	–	–	–	–	–
CCCCCCCCCCCCCC(=O)OCC(COC(=O)CCC(=O)OCC(=O)[C@@]1(O)[C@H](C)C[C@H]2[C@@H]3CCC4=CC(=O)C=C[C@]4(C)[C@@]3(F)[C@@H](O)C[C@@]21C)OC(=O)CCCCCCCCCCCCC (stereo partly drawn) [LD17-DEX, 2,3-dimyristroylpropyl (2-((8S,9R,10S,11S,13S,14S,16R,17R)-9-fluoro-11,17-dihydroxy-10,13,16-trimethyl-3-oxo-6,7,8,9,10,11,12,13,14,15,16,17-dodecahydro-3H-cyclopenta[a]phenanthren-17-yl)-2-oxoethyl) succinate]	–	[48 (0.06)] nm	–	[89] %	–	not susceptible to degradation	–	–	–	–	–	–	able to suppress plasma cytokine	able to reduce IL1β expression	–	–	–	–	–
CCCCCCCC/C=C\CCCCCCCCOC(=O)CCC(=O)O[C@@H](C(=O)O[C@H]1C[C@@]2(O)[C@@H](OC(=O)c3ccccc3)[C@@H]3[C@]4(OC(C)=O)CO[C@@H]4C[C@H](O)[C@@]3(C)C(=O)[C@H](O)C(=C1C)C2(C)C)[C@@H](NC(=O)OC(C)(C)C)c1ccccc1 [LD18-DTX, (2R,3S)-1-(((2aR,4S,4aS,6R,9S,11S,12S,12aR,12bS)-12b-acetoxy-12-(benzoyloxy)-4,6,11-trihydroxy-4a,8,13,13-tetramethyl-5-oxo-2a,3,4,4a,5,6,9,10,11,12,12a,12b-dodecahydro-1H-7,11-methanocyclodeca[3,4]benzo[1,2-b]oxet-9-yl)oxy)-3-((tert-butoxycarbonyl)amino)-1-oxo-3-phenylpropan-2-yl(Z)-octadec-9-en-1-ylsuccinate]	–	–	–	–	–	largely not degraded	active docetaxel (DTX) was observed	dissociated at a faster rate from lipid nanoparticles than LD22-DTX	–	–	–	active docetaxel (DTX) was observed	–	–	dissociates from LNP faster than LD22	7.62	7.43	6.88	7.19
